Measured values published in patent US12357645B2, “Drug combination for treatment of gastric cancer” (priority 2023, dated 2025).

Legend:
gastric cancer = settings: alone or in combination, when properly dosed
Source text: Gastric cancer is the most prevalent cancer in South Korea […]. […] Herein, we have evaluated efficacy of minnelide prodrug in combination with paclitaxel in a subcutaneous mouse model of gastric cancer and in a human clinical trial.

[1] = system: patients with Advanced Solid Tumors; assay type: in vivo, human
Source text: Oral Minnelide Prodrug. A Phase 1, Multi-Center, Open-Label, Dose-Escalation, Safety, Pharmacokinetic, and Pharmacodynamic Study of Minnelide™ Capsules given alone or in combination with protein-bound paclitaxel in patients with Advanced Solid Tumors. A total of 44 patients were enrolled and dosed in the Phase 1 study, 32 in the monotherapy regimen, and 12 in the combination regimen. The primary reason for discontinuation of treatment has been disease progression. There were 9 deaths in the study, 7 of which were assessed as not related to minnelide prodrug and were after discontinuation of the study drug. One patient on the 1.25 mg monotherapy regimen passed away from G5 related sepsis.

[2] = system: patients with advanced gastric cancer (AGC); experiment: Phase 1 study of minnelide prodrug alone or with paclitaxel in advanced gastric cancer (NCT 05566834): safety, DLT, MTD, adverse events
[3] = 44 patients, alone or with protein-bound paclitaxel
[4] = Regimen A (PO daily x21 d/28 d), n = 11

CC(C)[C@]12O[C@H]1[C@@H]1O[C@]13[C@]1(O[C@H]1C[C@H]1C4=C(CC[C@@]13C)C(=O)OC4)[C@@H]2OCOP(=O)([O-])[O-].[Na+].[Na+] [minnelide prodrug, disodium; [(1S,2S,4S,5S,7S,8R,9R,11S, 13S)-1-methyl-17-oxo-7-propan-2-yl-3,6,10,16-tetraoxaheptacyclo [11.7.0.0^2,4.0^2,9.0^5,7.0^9,11.0^14,18]icos-14 (18)-en-8-yl]oxymethyl phosphate]
toxic effects (gastric cancer): no significant toxic effects | Serious Adverse Events related to the study drug [1, 3]: 4 | Serious Adverse Events, number [1, 3]: 28 | patients who discontinued study drug due to TEAE [1, 3]: Four | patients with Serious Adverse Events [1, 3]: 17 | deaths in the study ([1]; 44 patients: 32 monotherapy, 12 combination): 9 | deaths assessed as not related to minnelide prodrug ([1]; after discontinuation of the study drug): 7 | patients with at least 1 AE considered related to the study drug ([1]; in vivo): Twenty-seven | SAE cases considered dose limiting toxicities (DLTs) ([1]; two events of sepsis, one influenza A pneumonia): Three | Grade 5 AEs caused by gastric cancer progression, number ([2]; Regimen A): 3 | minnelide prodrug-related AE abdominal pain ([2]; Regimen A): 27.3% | minnelide prodrug-related AE anorexia ([2]; Regimen A): 54.5% | minnelide prodrug-related AE nausea ([2]; Regimen A): 45.5% | Minnelide-related AE Abdominal pain, Any [2, 4]: 3 (27.3) n (%) | Minnelide-related AE Abdominal pain, ≥Gr 3 [2, 4]: 2 (18.2) n (%) | Minnelide-related AE Anorexia, Any [2, 4]: 6 (54.5)/— ^ n (%) | Minnelide-related AE Fatigue, Any [2, 4]: 2 (18.2)/— ^ n (%) | Minnelide-related AE Nausea, Any [2, 4]: 5 (45.5) n (%) | Minnelide-related AE Nausea, ≥Gr 3 [2, 4]: 2 (18.2) n (%) | Minnelide-related AE Neutropenia, Any [2, 4]: 1 (9.1)/1 (9.1) n (%) | Minnelide-related AE Neutropenia, ≥Gr 3 [2, 4]: 1 (9.1)/1 (9.1) n (%) | Minnelide-related AE Overall, Any [2, 4]: 8 (72.7) n (%) | Minnelide-related AE Vomiting, Any [2, 4]: 1 (9.1)/1 (9.1) n (%) | Minnelide-related AE Vomiting, ≥Gr 3 [2, 4]: 1 (9.1)/1 (9.1) n (%) | TRAE Abdominal pain, Any [2, 4]: 5 (45.5) n (%) | TRAE Abdominal pain, ≥Gr 3 [2, 4]: 2 (18.2) n (%) | TRAE Anemia, Any [2, 4]: 2 (18.2)/2 (18.2) n (%) | TRAE Anemia, ≥Gr 3 [2, 4]: 2 (18.2)/2 (18.2) n (%) | TRAE Annualar scaly plaques, Any [2, 4]: 1 (9.1)/— n (%) | TRAE Anorexia, Any [2, 4]: 8 (72.7)/— n (%) | TRAE Azotemia, Any [2, 4]: 1 (9.1)/— n (%) | TRAE Cancer pain, Any [2, 4]: 3 (27.3) n (%) | TRAE Cancer pain, ≥Gr 3 [2, 4]: 1 (9.1) n (%) | TRAE Cancer progression, Any [2, 4]: 3 (27.3)/3 (27.3) n (%) | TRAE Cancer progression, ≥Gr 3 [2, 4]: 3 (27.3)/3 (27.3) n (%) | TRAE Constipation, Any [2, 4]: 1 (9.1)/— n (%) | TRAE Decreased vision, Any [2, 4]: 1 (9.1)/— n (%) | TRAE Depression, Any [2, 4]: 1 (9.1)/— n (%) | TRAE Dyspepsia, Any [2, 4]: 1 (9.1)/— n (%) | TRAE Dysuria, Any [2, 4]: 1 (9.1)/— n (%) | TRAE Fatigue, Any [2, 4]: 3 (27.3)/— n (%) | TRAE Gastric stenosis, Any [2, 4]: 1 (9.1)/1 (9.1) n (%) | TRAE Gastric stenosis, ≥Gr 3 [2, 4]: 1 (9.1)/1 (9.1) n (%) | TRAE Hypophosphatemi, Any [2, 4]: 1 (9.1)/1 (9.1) n (%) | TRAE Hypophosphatemi, ≥Gr 3 [2, 4]: 1 (9.1)/1 (9.1) n (%) | TRAE Nausea, Any [2, 4]: 6 (54.5) n (%) | TRAE Nausea, ≥Gr 3 [2, 4]: 2 (18.2) n (%) | TRAE Neutropenia, Any [2, 4]: 1 (9.1)/1 (9.1) n (%) | TRAE Neutropenia, ≥Gr 3 [2, 4]: 1 (9.1)/1 (9.1) n (%) | TRAE Overall, Any [2, 4]: 11 (100.0) n (%) | TRAE Overall, ≥Gr 3 [2, 4]: 8 (72.7) n (%) | TRAE Tachycardia, Any [2, 4]: 1 (9.1)/— n (%) | TRAE Urinary tract infection, Any [2, 4]: 1 (9.1)/— n (%) | TRAE Vomiting, Any [2, 4]: 3 (27.3) n (%) | TRAE Vomiting, ≥Gr 3 [2, 4]: 1 (9.1) n (%) | dose-limiting toxicities (DLTs), number ([2]; Regimen A, dose level 3, 1.5 mg, Grade 3 abdominal pain): two and Two | Minnelide-related AE Abdominal pain, Any ([2]; Total Regimens A-C, n = 36): 14 (38.9) n (%) | Minnelide-related AE Abdominal pain, ≥Gr 3 ([2]; Total Regimens A-C, n = 36): 4 (11.1) n (%) | Minnelide-related AE Anorexia, Any ([2]; Total Regimens A-C, n = 36): 15 (41.7)/— n (%) | Minnelide-related AE Constipation, Any ([2]; Total Regimens A-C, n = 36): 1 (2.8)/— n (%) | Minnelide-related AE Fatigue, Any ([2]; Total Regimens A-C, n = 36): 4 (11.1)/— n (%) | Minnelide-related AE General weakness, Any ([2]; Total Regimens A-C, n = 36): 1 (2.8)/— n (%) | Minnelide-related AE Nausea, Any ([2]; Total Regimens A-C, n = 36): 10 (27.8) n (%) | Minnelide-related AE Nausea, ≥Gr 3 ([2]; Total Regimens A-C, n = 36): 2(5.6) n (%) | Minnelide-related AE Neutropenia, Any ([2]; Total Regimens A-C, n = 36): 11 (30.5) n (%) | Minnelide-related AE Neutropenia, ≥Gr 3 ([2]; Total Regimens A-C, n = 36): 7 (19.4) n (%) | Minnelide-related AE Overall, Any ([2]; Total Regimens A-C, n = 36): 27 (75.0) n (%)
